The NIST ThermoML archive (doi:10.1021/je800110r)
± gives the expanded uncertainty stated by the source.

Settings: 293.15 K, Liquid, Vibrating tube method

CCCCCCCCCC [decane]
Settings | mass density [kg/m3]
17005 kPa | 742.2 ± 2
17022 kPa | 742.3 ± 2
17041 kPa | 742.3 ± 2
17058 kPa | 742.3 ± 2
17074 kPa | 742.3 ± 2
17089 kPa | 742.1 ± 2
17103 kPa | 742.4 ± 2
17122 kPa | 742.2 ± 2
17142 kPa | 742.2 ± 2
17156 kPa | 742.3 ± 2
17176 kPa | 742.3 ± 2
17193 kPa | 742.3 ± 2
17207 kPa | 742.3 ± 2
17227 kPa | 742.3 ± 2
17240 kPa | 742.3 ± 2
17257 kPa | 742.4 ± 2
17274 kPa | 742.5 ± 2
17296 kPa | 742.3 ± 2
17313 kPa | 742.4 ± 2
17338 kPa | 742.4 ± 2
17352 kPa | 742.4 ± 2
17370 kPa | 742.4 ± 2
17390 kPa | 742.4 ± 2
17410 kPa | 742.4 ± 2
17425 kPa | 742.4 ± 2
17440 kPa | 742.5 ± 2
17453 kPa | 742.5 ± 2
17471 kPa | 742.5 ± 2
17486 kPa | 742.5 ± 2
17508 kPa | 742.5 ± 2
17521 kPa | 742.6 ± 2
17538 kPa | 742.6 ± 2
17558 kPa | 742.6 ± 2
17571 kPa | 742.6 ± 2
17589 kPa | 742.5 ± 2
17610 kPa | 742.6 ± 2
17627 kPa | 742.7 ± 2
17648 kPa | 742.6 ± 2
17663 kPa | 742.6 ± 2
17679 kPa | 742.6 ± 2
17699 kPa | 742.6 ± 2
17715 kPa | 742.7 ± 2
17736 kPa | 742.7 ± 2
17752 kPa | 742.7 ± 2
17772 kPa | 742.8 ± 2
17787 kPa | 742.6 ± 2
17806 kPa | 742.7 ± 2
17828 kPa | 742.8 ± 2
17849 kPa | 742.7 ± 2
17868 kPa | 742.8 ± 2
17883 kPa | 742.8 ± 2
17899 kPa | 742.8 ± 2
17913 kPa | 742.8 ± 2
17931 kPa | 742.9 ± 2
17955 kPa | 743 ± 2
17969 kPa | 742.9 ± 2
17985 kPa | 743 ± 2
18004 kPa | 742.9 ± 2
18017 kPa | 742.9 ± 2
18036 kPa | 742.9 ± 2
18058 kPa | 743 ± 2
18072 kPa | 743 ± 2
18088 kPa | 743 ± 2
18102 kPa | 742.9 ± 2
18118 kPa | 742.9 ± 2
18140 kPa | 743 ± 2
18162 kPa | 742.9 ± 2
18178 kPa | 743.2 ± 2
18195 kPa | 743 ± 2
18214 kPa | 743 ± 2
18233 kPa | 743 ± 2
18256 kPa | 742.9 ± 2
18273 kPa | 743.2 ± 2
18295 kPa | 743 ± 2
18317 kPa | 743 ± 2
18342 kPa | 743.1 ± 2
18359 kPa | 743.1 ± 2
18381 kPa | 743.1 ± 2
18400 kPa | 743.1 ± 2
18418 kPa | 743.2 ± 2
18434 kPa | 743.1 ± 2
18457 kPa | 743.3 ± 2
18474 kPa | 743.3 ± 2
18500 kPa | 743.2 ± 2
18520 kPa | 743.3 ± 2
18538 kPa | 743.2 ± 2
18560 kPa | 743.3 ± 2
18581 kPa | 743.3 ± 2
18599 kPa | 743.3 ± 2
18622 kPa | 743.3 ± 2
18645 kPa | 743.4 ± 2
18663 kPa | 743.4 ± 2
18686 kPa | 743.3 ± 2
18701 kPa | 743.3 ± 2
18728 kPa | 743.3 ± 2
18745 kPa | 743.3 ± 2
18766 kPa | 743.4 ± 2
18793 kPa | 743.4 ± 2
18811 kPa | 743.5 ± 2
18832 kPa | 743.4 ± 2
18849 kPa | 743.4 ± 2
18871 kPa | 743.5 ± 2
18888 kPa | 743.5 ± 2
18912 kPa | 743.5 ± 2
18936 kPa | 743.6 ± 2
18955 kPa | 743.5 ± 2
18976 kPa | 743.6 ± 2
19001 kPa | 743.6 ± 2
19019 kPa | 743.6 ± 2
19043 kPa | 743.6 ± 2
19062 kPa | 743.5 ± 2
19077 kPa | 743.5 ± 2
19096 kPa | 743.7 ± 2
19115 kPa | 743.7 ± 2
19134 kPa | 743.7 ± 2
19153 kPa | 743.7 ± 2
19172 kPa | 743.6 ± 2
19191 kPa | 743.6 ± 2
19259 kPa | 743.8 ± 2
19307 kPa | 743.7 ± 2
19325 kPa | 743.7 ± 2
19340 kPa | 743.7 ± 2
19353 kPa | 743.9 ± 2
19374 kPa | 743.8 ± 2
19395 kPa | 743.9 ± 2
19408 kPa | 743.8 ± 2
19424 kPa | 743.9 ± 2
19451 kPa | 743.9 ± 2
19464 kPa | 743.9 ± 2
19480 kPa | 743.8 ± 2
19495 kPa | 743.8 ± 2
19511 kPa | 743.8 ± 2
19524 kPa | 743.8 ± 2
19536 kPa | 743.9 ± 2
19556 kPa | 743.9 ± 2
19575 kPa | 744 ± 2
19589 kPa | 743.9 ± 2
19602 kPa | 743.9 ± 2
19616 kPa | 743.9 ± 2
19630 kPa | 743.8 ± 2
19643 kPa | 744 ± 2
19662 kPa | 744 ± 2
19678 kPa | 743.9 ± 2
19692 kPa | 744 ± 2
19712 kPa | 744 ± 2
19726 kPa | 744 ± 2
19742 kPa | 744 ± 2
19763 kPa | 744 ± 2
19775 kPa | 744 ± 2
19793 kPa | 744.1 ± 2
19810 kPa | 744.1 ± 2
19824 kPa | 744.2 ± 2
19838 kPa | 744.1 ± 2
19852 kPa | 744.1 ± 2
19866 kPa | 744.1 ± 2
19883 kPa | 744.1 ± 2
19897 kPa | 744.1 ± 2
19914 kPa | 744.2 ± 2
19935 kPa | 744.2 ± 2
19950 kPa | 744.2 ± 2
19969 kPa | 744.4 ± 2
19983 kPa | 744.2 ± 2
19999 kPa | 744.2 ± 2
20016 kPa | 744.2 ± 2
20035 kPa | 744.3 ± 2
20055 kPa | 744.2 ± 2
20072 kPa | 744.3 ± 2
20084 kPa | 744.3 ± 2
20103 kPa | 744.2 ± 2
20120 kPa | 744.2 ± 2
20137 kPa | 744.3 ± 2
20152 kPa | 744.2 ± 2
20165 kPa | 744.3 ± 2
20181 kPa | 744.2 ± 2
20196 kPa | 744.4 ± 2
20218 kPa | 744.4 ± 2
20233 kPa | 744.4 ± 2
20251 kPa | 744.3 ± 2
20263 kPa | 744.5 ± 2
20288 kPa | 744.3 ± 2
20306 kPa | 744.4 ± 2
20326 kPa | 744.3 ± 2
20343 kPa | 744.4 ± 2
20365 kPa | 744.5 ± 2
20383 kPa | 744.5 ± 2
20398 kPa | 744.5 ± 2
20413 kPa | 744.5 ± 2
20428 kPa | 744.5 ± 2
20450 kPa | 744.6 ± 2
20470 kPa | 744.5 ± 2
20485 kPa | 744.5 ± 2
20503 kPa | 744.6 ± 2
20519 kPa | 744.5 ± 2
20535 kPa | 744.6 ± 2
20555 kPa | 744.6 ± 2
20576 kPa | 744.6 ± 2
20591 kPa | 744.6 ± 2
20611 kPa | 744.6 ± 2
20636 kPa | 744.6 ± 2
20654 kPa | 744.6 ± 2
20670 kPa | 744.7 ± 2
20688 kPa | 744.8 ± 2
20711 kPa | 744.7 ± 2
20727 kPa | 744.6 ± 2
20743 kPa | 744.7 ± 2
20764 kPa | 744.6 ± 2
20785 kPa | 744.7 ± 2
20803 kPa | 744.7 ± 2
20822 kPa | 744.7 ± 2
20837 kPa | 744.9 ± 2
20856 kPa | 744.7 ± 2
20872 kPa | 744.8 ± 2
20893 kPa | 744.8 ± 2
20909 kPa | 744.8 ± 2
20930 kPa | 744.9 ± 2
20946 kPa | 744.9 ± 2
20964 kPa | 744.9 ± 2
20980 kPa | 744.9 ± 2
20999 kPa | 745 ± 2
21015 kPa | 744.9 ± 2
21039 kPa | 744.9 ± 2
21058 kPa | 744.9 ± 2
21074 kPa | 744.8 ± 2
21093 kPa | 744.9 ± 2
21109 kPa | 745 ± 2
21128 kPa | 744.9 ± 2
21144 kPa | 745 ± 2
21163 kPa | 745 ± 2
21179 kPa | 744.9 ± 2
21196 kPa | 745.1 ± 2
21212 kPa | 745 ± 2
21228 kPa | 744.9 ± 2
21247 kPa | 744.9 ± 2
21266 kPa | 745.1 ± 2
21283 kPa | 745.1 ± 2
21304 kPa | 745 ± 2
21320 kPa | 745.2 ± 2
21339 kPa | 745.1 ± 2
21361 kPa | 745.1 ± 2
21381 kPa | 745.2 ± 2
21397 kPa | 745.2 ± 2
21417 kPa | 745.2 ± 2
21436 kPa | 745.1 ± 2
21453 kPa | 745.1 ± 2
21470 kPa | 745.2 ± 2
21492 kPa | 745 ± 2
21514 kPa | 745.1 ± 2
21534 kPa | 745.2 ± 2
21559 kPa | 745.2 ± 2
21576 kPa | 745.2 ± 2
21596 kPa | 745.3 ± 2
21619 kPa | 745.3 ± 2
21641 kPa | 745.2 ± 2
21661 kPa | 745.2 ± 2
21681 kPa | 745.2 ± 2
21704 kPa | 745.4 ± 2
21724 kPa | 745.3 ± 2
21747 kPa | 745.4 ± 2
21764 kPa | 745.4 ± 2
21789 kPa | 745.5 ± 2
21810 kPa | 745.3 ± 2
21827 kPa | 745.3 ± 2
21847 kPa | 745.5 ± 2
21865 kPa | 745.5 ± 2
21885 kPa | 745.4 ± 2
21900 kPa | 745.3 ± 2
21924 kPa | 745.5 ± 2
21947 kPa | 745.5 ± 2
21965 kPa | 745.4 ± 2
21983 kPa | 745.4 ± 2
22000 kPa | 745.4 ± 2
22018 kPa | 745.5 ± 2
22037 kPa | 745.5 ± 2
22053 kPa | 745.5 ± 2
